Literature values as cited in patent US7795226B2, “Control of radiation injury” (Biotempt B.V., priority 2006, dated 2010).

Experiments:
gamma-irradiated mice [1] = details: cited from earlier work
radiation exposure = details: in vivo; cited from earlier work
gamma-irradiated mice [2] = details: sc administration prior to WBI; from probit survival curves; cited from earlier work

With `O=c1c(-c2ccc(O)cc2)coc2cc(O)cc(O)c12` [genisteine] as the molecule, how does the “Dose reduction Factor (DRF)” value (gamma-irradiated mice [1]; best dose 200 mg/kg, 24 hours before irradiation) read?
Its value is 1.16.

And the “radioprotection (in words)” value (gamma-irradiated mice [1]; given one hour prior to whole body irradiation)?
Its value is “no radioprotection was observed”.

With `O=C(O)c1ccc(/C=C/S(=O)(=O)Cc2ccc(Cl)cc2)cc1` [ON-01210, 4-carboxystyrl-4-chlorobenzylsulfone] as the molecule, how does the “radiation protection activity (in words)” value (radiation exposure) read?
Its value is “protective only if it is given pre-radiation exposure”.

With `C[C@]12CC[C@H]3[C@@H](CC=C4C[C@@H](O)CC[C@@]43C)[C@@H]1CC[C@@H]2O` [Peptide 5-AED, 5-androstenediol] as the molecule, how does the dose reduction factor (gamma-irradiated mice [2]) read?
The dose reduction factor was 1.3.
